Earlier results in Sander's compilation of Henry's law constants.

Assay: Henry solubility constant Hcp at 298.15 K (mol/(m3 Pa))
Settings: cited value
[1] = reference: Burkholder et al. (2015)
[2] = reference: Burkholder et al. (2019)
[3] = reference: Barcelo and Hennion (1997)
[4] = reference: Sander et al. (2006)
[5] = reference: Sander et al. (2011)
[6] = reference: Fogg and Sangster (2003)
[7] = reference: Hine and Weimar (1965)
[8] = reference: Mackay et al. (1995)

In the case of `c1cc2cccc3c4cccc5cccc(c(c1)c23)c54` [perylene], the “Henry solubility constant Hcp” value (reference: Mackay et al. (1992b)) is given as 330.

In the case of `CCCC(C)CC` (centres undefined) [3-methylhexane], the “Henry solubility constant Hcp” value (reference: Brockbank (2013)) is given as 3.2e-06.

For `CC(O)CO` (centres undefined) [1,2-propanediol], the “Henry solubility constant Hcp” value [1] is given as 2700 and the “Henry solubility constant Hcp” value [2] is given as 2700.

In the case of `C1=C\CCCCCC/1` [cyclooctene], the “Henry solubility constant Hcp” value (reference: Brockbank (2013)) is given as 0.00021.

In the case of `[Ar]` [argon], the “Henry solubility constant Hcp” value (reference: Clever (1980)) is listed as 1.4e-05.

For `COc1ccc(NC(=O)N(C)C)cc1Cl` [metoxuron], the “Henry solubility constant Hcp” value [3] is given as 6.6.

For `Cc1ccc(N=CN(C)C=Nc2ccc(C)cc2C)c(C)c1` [amitraz], the “Henry solubility constant Hcp” value (reference: MacBean (2012b)) is given as 1.

For `Nc1ccc(Cl)cc1` [1-amino-4-chlorobenzene], the “Henry solubility constant Hcp” value (reference: Howard (1989)) is given as 0.92.

For `COC(=O)c1ccccc1O` [2-hydroxybenzoic acid methyl ester], the “Henry solubility constant Hcp” value (reference: Brockbank (2013)) is given as 1.6.

In the case of `CCC/C=C(/C=O)CC` [2-ethyl-2-hexenal], the “Henry solubility constant Hcp” value (reference: Brockbank (2013)) is given as 0.052.

In the case of `CCSCC` [diethyl sulfide], the “Henry solubility constant Hcp” value [1] is given as 0.0035 and the “Henry solubility constant Hcp” value [2] is given as 0.0035.

In the case of `Cc1nnc(-c2ccccc2)c(=O)n1N` [metamitron], the “Henry solubility constant Hcp” value [3] is listed as 1e+06.

For `CC1(C(=O)Nc2ccc(O)c(Cl)c2Cl)CCCCC1` [fenhexamid], the “Henry solubility constant Hcp” value (reference: MacBean (2012b)) is given as 200000.

For `CC(Cc1ccc(C(C)(C)C)cc1)CN1C[C@@H](C)O[C@@H](C)C1` (some centres undefined) [fenpropimorph], the “Henry solubility constant Hcp” value [3] is given as 0.062.

For `C=C` [ethene], the “Henry solubility constant Hcp” value [1] is listed as 5.9e-05, the “Henry solubility constant Hcp” value [2] is listed as 5.9e-05 and the “Henry solubility constant Hcp” value (reference: Deno and Berkheimer (1960)) is listed as 4.7e-05. The “Henry solubility constant Hcp” value (reference: Hayduk (1994)) was 4.7e-05, the “Henry solubility constant Hcp” value [4] was 5.9e-05 and the “Henry solubility constant Hcp” value [5] was 5.9e-05.

For `CCCCCCC(=O)CC` [3-nonanone], the “Henry solubility constant Hcp” value (reference: Brockbank (2013)) is listed as 0.051.

For `FN(F)F` [nitrogen trifluoride], the “Henry solubility constant Hcp” value [1] is listed as 7.9e-06, the “Henry solubility constant Hcp” value [2] is listed as 7.9e-06 and the “Henry solubility constant Hcp” value [5] is listed as 7.9e-06.

In the case of `CCCCCCCc1ccccc1` [heptylbenzene], the “Henry solubility constant Hcp” value (reference: Brockbank (2013)) is listed as 0.00027.

For `FC(F)OC(Cl)C(F)(F)F` (centres undefined) [1-chloro-2,2,2-trifluoroethyl difluoromethyl ether], the “Henry solubility constant Hcp” value [6] is listed as 0.00024.

In the case of `O=CC(=O)O` [oxoethanoic acid], the “Henry solubility constant Hcp” value [5] is listed as 110.

In the case of `CC(C)C(=O)C(C)C` [2,4-dimethyl-3-pentanone], the “Henry solubility constant Hcp” value (reference: Brockbank (2013)) is given as 0.023.

In the case of `COc1ccc(-c2ccccc2)cc1NNC(=O)OC(C)C` [bifenazate], the “Henry solubility constant Hcp” value (reference: MacBean (2012b)) is given as 1000.

In the case of `CCOP(=S)(OCC)OP(=S)(OCC)OCC` [sulfotep], the “Henry solubility constant Hcp” value [3] is listed as 0.0099.

In the case of `CC(C)COC=O` [(2-methylpropyl)-methanoate], the “Henry solubility constant Hcp” value (reference: Brockbank (2013)) is given as 0.016.

In the case of `O=C(O)CCCC(=O)O` [pentanedioic acid], the “Henry solubility constant Hcp” value [1] is listed as 3.8e+07 and the “Henry solubility constant Hcp” value [2] is listed as 3.8e+07.

For `CCCC(O)CC` (centres undefined) [3-hexanol], the “Henry solubility constant Hcp” value (reference: Brockbank (2013)) is listed as 0.37.

For `COC` [dimethyl ether], the “Henry solubility constant Hcp” value [7] is given as 0.0098.

In the case of `CC=C(C)C` [2-methyl-2-butene], the “Henry solubility constant Hcp” value (reference: Brockbank (2013)) is given as 5.7e-05.

For `CCC(C)(C)CC` [3,3-dimethylpentane], the “Henry solubility constant Hcp” value (reference: Brockbank (2013)) is given as 5.6e-06.

For `O=NN(c1ccccc1)c1ccccc1` [N-nitrosodiphenylamine], the “Henry solubility constant Hcp” value [8] is listed as 0.015.

In the case of `c1ccc2c(c1)[nH]c1ccccc12` [carbazole], the “Henry solubility constant Hcp” value (reference: Brockbank (2013)) is listed as 94.

For `CN(C)N=O` [N-nitrosodimethylamine], the “Henry solubility constant Hcp” value [1] is given as 3.9, the “Henry solubility constant Hcp” value [2] is given as 3.9 and the “Henry solubility constant Hcp” value [8] is given as 0.3.

For `O=COCc1ccccc1` [benzyl methanoate], the “Henry solubility constant Hcp” value (reference: Brockbank (2013)) is listed as 2.

In the case of `CC(C)(C)OC=O` [(1,1-dimethylethyl)-methanoate], the “Henry solubility constant Hcp” value (reference: Brockbank (2013)) is listed as 0.014.

For `Cc1cc(C)cc(C)c1` [1,3,5-trimethylbenzene], the “Henry solubility constant Hcp” value (reference: Brockbank (2013)) is listed as 0.0012.

In the case of `CCCCCO` [1-pentanol], the “Henry solubility constant Hcp” value (reference: Brockbank (2013)) is given as 0.86 and the “Henry solubility constant Hcp” value (reference: Dohnal et al. (2006)) is given as 1.

For `O=C(O)C(Br)(Br)Br` [tribromoethanoic acid], the “Henry solubility constant Hcp” value [1] is listed as 3000, the “Henry solubility constant Hcp” value [2] is listed as 3000 and the “Henry solubility constant Hcp” value [5] is listed as 3000.

In the case of `[He]` [helium], the “Henry solubility constant Hcp” value (reference: Clever (1979a)) is given as 3.8e-06 and the “Henry solubility constant Hcp” value (reference: Himmelblau (1960)) is given as 3.7e-06.

In the case of `CCOP(=S)(OCC)SCCSCC` [disulfoton], the “Henry solubility constant Hcp” value [3] is given as 0.045 and the “Henry solubility constant Hcp” value (reference: Muir et al. (2004)) is given as 11.

In the case of `FC(F)(F)C(F)(F)C(F)(F)C(F)(F)C(F)(F)C(F)(F)C(F)(F)F` [hexadecafluoroheptane], the “Henry solubility constant Hcp” value (reference: Brockbank (2013)) is listed as 3e-09.

In the case of `CN/C(=N\[N+](=O)[O-])NCc1cnc(Cl)s1` [clothianidin], the “Henry solubility constant Hcp” value (reference: MacBean (2012b)) is listed as 3.4e+10.

In the case of `CC#N` [ethanenitrile], the “Henry solubility constant Hcp” value (reference: Arijs and Brasseur (1986)) is listed as 0.47, the “Henry solubility constant Hcp” value (reference: Brockbank (2013)) is listed as 0.49 and the “Henry solubility constant Hcp” value [1] is listed as 0.52. For the same compound, the “Henry solubility constant Hcp” value [2] was 0.52, the “Henry solubility constant Hcp” value [6] was 0.5 and the “Henry solubility constant Hcp” value (reference: Gaffney and Senum (1984)) was 0.29. For the same compound, the “Henry solubility constant Hcp” value [7] was 0.29, the “Henry solubility constant Hcp” value (reference: Plyasunov et al. (2006)) was 0.38 and the “Henry solubility constant Hcp” value [4] was 0.52. The “Henry solubility constant Hcp” value [5] was 0.52.

In the case of `CCC(C)(C)OC` [2-methoxy-2-methylbutane], the “Henry solubility constant Hcp” value (reference: Brockbank (2013)) is listed as 0.0097.
